# Data taken from article PMC9413440, “An Iterative Approach Guides Discovery of the FabI Inhibitor Fabimycin, a Late-Stage Antibiotic Candidate with In Vivo Efficacy against Drug-Resistant Gram-Negative Infections” (ACS Central Science, 2022).
# Read-outs that look alike come from different tables or passages of the source.
# How the values were obtained:
# A. baumannii FabI = A. baumannii FabI (Acinetobacter baumannii, UniProt D0CAD5); assay: Differential scanning fluorimetry; type: binding; details: relative to the holoenzyme
# Experimental: supplemented with 100 µg/mL ampicillin at 37°C until OD600 reached 0.6-0.7. The cells were induced with 1mM IPTG and incubated for 20 hours at 18°C and spun down at 8000 rpm for 15 minutes. Cell pellet was resuspended in the lysis buffer (50 mM Tris-HCl pH 8.0, 500 mM Na Cl, 20 mM imidazole, 10% glycerol, 0.5 mM TCEP, protease inhibitor and Lysonase) and passed through microfluidizer followed by centrifugation and filtration to remove cell debris. The clarified lysate was supplemented with 20 mM imidazole and passed over a HisTrap column (Cytiva) pre-equilibrated with the wash buffer (50 mM Tris-HCl pH 8.0, 500 mM NaCl, 20 mM imidazole, 10% glycerol, 0.5 mM TCEP). The column was washed with the wash buffer and eluted over a 20-500 mM imidazole gradient. […]
# Recombinant E. coli and A. baummani FabI enzymes were used in a continuous NADH absorbance assay (20 µL in 384w format). […] After shaking for 5 seconds the reaction was monitored at NADH absorbance (340nm, 25°C) using a Molecular Devices SpectraMax M5 microplate reader. The linear portion of the progress curve was fit using plate-reader software. Percentage activity was calculated relative to DMSO only and no-substrate controls in each plate and the data were fit to Morrison’s quadratic using Graphpad Prism 9.3 to obtain apparent inhibition constant (Ki app) values. […]
# Pseudomonas aeruginosa = assay: MIC, Pseudomonas aeruginosa strains; type: cell-based
# Experimental: II. Materials and Methods for Biological Experiments
# S. aureus ATCC 29213 and E. coli MG1655 were obtained from the American Type Culture Collection (ATCC). E. coli BW25113 and E. coli JW5503 were obtained from the Keio Collection. AR-bank strains were obtained from the Centers for Disease Control and Prevention and FDA Antibiotic Resistance Isolate Bank.
# Antimicrobial susceptibility tests
# Susceptibility testing was performed in biological triplicate, unless noted otherwise, using the micro-dilution broth method as outlined by the Clinical and Laboratory Standards Institute. Bacteria were cultured with cation-adjusted Mueller Hinton broth (Sigma Aldrich, catalogue number: 90922). […]
# Error bars represent the standard error of the mean of three biological replicates. All compounds evaluated in biological assays were ≥95% pure.
# [1] = test system: A. baumannii clinical isolates (n=100); assay: MIC50/MIC90, clinical isolate panel; type: cell-based; details: Acinetobacter baumannii
# [2] = A. baumannii (n=100) clinical isolates
# Sequence of A. baumannii FabI (D0CAD5 entry or part of it): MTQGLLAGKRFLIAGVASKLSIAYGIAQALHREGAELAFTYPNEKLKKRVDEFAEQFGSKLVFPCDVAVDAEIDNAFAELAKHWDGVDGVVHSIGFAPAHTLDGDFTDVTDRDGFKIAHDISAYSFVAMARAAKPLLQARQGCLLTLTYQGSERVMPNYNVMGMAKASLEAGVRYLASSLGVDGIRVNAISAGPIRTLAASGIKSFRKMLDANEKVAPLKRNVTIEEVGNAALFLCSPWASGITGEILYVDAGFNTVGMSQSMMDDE
Compound,ΔTm (A. baumannii FabI),MIC (Pseudomonas aeruginosa; P. aeruginosa AR-0229),MIC (Pseudomonas aeruginosa; P. aeruginosa AR-0230),MIC (Pseudomonas aeruginosa; P. aeruginosa AR-0231),MIC (Pseudomonas aeruginosa; P. aeruginosa AR-0233),MIC (Pseudomonas aeruginosa; P. aeruginosa AR-0234),MIC (Pseudomonas aeruginosa; P. aeruginosa AR-0235),MIC (Pseudomonas aeruginosa; P. aeruginosa AR-0609),MIC (Pseudomonas aeruginosa; P. aeruginosa AR-0610),"MIC (Pseudomonas aeruginosa; Pseudomonas aeruginosa, ATCC27853, P. aeruginosa ATCC 27853, read-out: MIC)","MIC (Pseudomonas aeruginosa; Pseudomonas aeruginosa, P. aeruginosa AR-0232, read-out: MIC)","MIC50 [1, 2]","MIC90 [1, 2]",MIC ([1]; the 1 pan-resistant strain of the 100 A. baumannii clinical isolates)
Cc1c(CN(C)C(=O)/C=C/c2cnc3c(c2)CC[C@@H](N)C(=O)N3)oc2ccccc12 [(R)-7],18 ± 0.5 °C,,,,,,,,,,,,,
Cc1c(CN(C)C(=O)/C=C/c2cnc3c(c2)CC[C@H](N)C(=O)N3)oc2ccccc12 [fabimycin],24 ± 0.5 °C,>128 µg/mL,>128 µg/mL,>128 µg/mL,>128 µg/mL,>128 µg/mL,>128 µg/mL,>128 µg/mL,>128 µg/mL,> 128 µg/mL,> 128 µg/mL,4 µg/mL,8 µg/mL,1 µg/mL
